Test results from patent US7449498B2, “Composite materials for bone defect filling and bone replacement” (Yesbio Co., Ltd., priority 2005, dated 2008).

Assay: Measurement of exothermic temperature during polymerization
Type: physicochemical
Settings: FIG. 3
Protocol: The composite material was mixed for 30 seconds and injected to a mold having a size in 5 mm of height and 3 mm of radius. Then, the temperature changes was measured in 3 samples per each group by inserting a thermocouple and read with a thermocouple reader (Yocogawa, Japan).

C=C(C#N)C(=O)OCCCC [BCA, n-butyl-2-cyanoacrylate]
temperature changes during polymerizing, in words: excessively exothermic
